From patent publication US20260250325A1, “Antiviral Polypeptide Membrane Fusion Inhibitor, and Preparation Method and Application Thereof” (priority 2025, published 2026)
Like-named read-outs stand apart in the source and are kept apart here. Where a SMILES comes first, the peptide text is derived from it. The star is where a group is joined. X1 = CC(C)CCCC(C)C1CCC2C3CC=C4CC(OC(=O)CCC(=O)*)CCC4(C)C3CCC12C

Tests used:
[1] = tested on: RSV A long virus strain; format: cell-based
Description: In this embodiment, an RSV-A long virus strain was used as an infection virus in the present disclosure. The anti-RSV activity of the synthesized polypeptide was determined through CPE detection.
The inhibitory activity of the compounds of Table 1-1-Table 1-5, positive polypeptide in Table 1-11, and positive control T-118 against the RSV-A long virus strain was detected.
(§1) Human Epithelial Pharyngeal Carcinoma Cells (HEp-2) were from the American Type Culture Collection (ATCC), with a catalog number CCL-23. The cells were cultured in a DMEM culture solution in which 10% fetal bovine serum, 1% sodium pyruvate, 1% nonessential amino acids, 2 mM glutamine, 100 U/mL penicillin, and 100 μg/mL streptomycin were added. The RSV A long virus strain was from the ATCC, with a catalog number VR-26.
This study used a plaque reduction experiment to detect the in-vitro activity of a test sample against the RSV A long virus strain. The test sample and a control compound were tested at 8 concentrations in duplicated wells. The HEp-2 cells were digested with trypsin and then diluted to a concentration of 300,000 cells per milliliter by using an experimental culture solution. The diluted cells were added to a 96-well cell test board, with 100 μL per well, corresponding to 30000 cells per well. The cells were cultured overnight in a 37° C. incubator with 5% CO2. On the second day, the test sample was diluted in an experimental culture medium at a fold ratio. The sample diluted at a fold ratio and an equal volume of virus (100 PFU per well) were well mixed and incubated at 37° C. in 5% CO2 for 1 h. Then, the culture solution in the 96-well cell test board was discarded, the sample virus mixed solution (200 μL) was added to the 96-well cell culture plate, and incubated at 37° C. in 5% CO2 for 2 hours. After 2 h, the sample virus mixed solution was discarded, and 200 μL of maintenance culture medium containing 0.8% CMC and the corresponding concentration of the test sample was added. A cell control (cells, without compound treatment or viral infection) and a viral control (cell infection virus, without compound treatment) were set. The cells were cultured for 1 day in the 37° C. incubator with 5% CO2. One day after viral infection, the culture medium was discarded, the cells were fixed with 4% paraformaldehyde, and then permeabilization was performed with 0.5% Triton X-100. After the plate was washed with DPBS, an RSV-specific antibody (RSV antibody, diluted 1:3000) was added and incubated at 37° C. for 1 h. Then, a secondary antibody (donkey anti-goat IgG, diluted 1:500) and incubated at 37° C. for 1 h. The secondary antibody was discarded, a TrueBlue solution was added, dyeing was performed for 10 min; and the plate was washed with running water and then air-dried, and the number of spots in each well was counted by using a microplate imaging counter. Raw data was used for calculating the antiviral activity of the samples.
(§2) The raw data for plaque counts and cell viability tests were used for analyzing the antiviral activity and cytotoxicity of the test samples, respectively. A calculation formula was shown as follows.
% inhibition rate=100−(sample value-cell control average value)/(virus control average value-cell control average value)×100%
(§3) Non-linear fitting analysis was performed on the inhibition rate of the sample by using GraphPad Prism (version 10), so as to calculate the IC50 and CC50 values for the sample.
IC50: in an in-vitro antiviral activity experiment, IC50 represented an inhibition ability indicator of a compound to be tested against the Hep-2 cells infected by the RSV A long virus strain.

[2] = Cytotoxicity test in HEp-2 cells (CCK8 cell viability); format: cell-based; details: human
Description: as §1
A cytotoxicity test and an antiviral test were performed in parallel. The HEp-2 cells were inoculated in the microplate at a density of 30,000 cells per well, and cultured overnight in the 37° C. incubator with 5% CO2. On the next day, the diluted test sample was added. The cell control (cells, without compound treatment) and a culture solution control (culture solution only, without cell or compound treatment) were set. A final concentration of DMSO in the culture solution was 0.5%. The cells were cultured for 1 day in the 37° C. incubator with 5% CO2. Cell viability was detected by using a cell viability detection kit CCK8.
as §2
cell survival rate=(sample value-culture medium control average value)/(cell control average value-culture medium control average value)×100
as §3
CC50: in the in-vitro antiviral activity experiment, CC50 was used to measure the toxicity of the compound to be tested to the Hep-2 cells. To be precise, when the compound to be tested was at a specific concentration, 50% of the Hep-2 cells was caused to die, and this concentration was defined as the CC50. A fitting formula was log (inhibitor) vs. response-Variable slope (four parameters).

[3] = RSV A long virus strain, HEp-2 cells, plaque reduction, 1 day, read-out: IC50
[4] = HEp-2 cells, CCK8, 1 day, read-out: CC50

Structure (SMILES): CC[C@H](C)[C@H](NC(=O)[C@H](Cc1ccccc1)NC(=O)[C@H](CCCCN)NC(=O)[C@H](CC(C)C)NC(=O)[C@H](CO)NC(=O)[C@H](CCC(N)=O)NC(=O)[C@H](CCC(=O)O)NC(=O)[C@@H](NC(=O)[C@H](CCCCN)NC(=O)[C@H](CCCCN)NC(=O)[C@H](CC(N)=O)NC(=O)[C@@H](NC(=O)[C@H](CCC(N)=O)NC(=O)[C@H](CCC(=O)O)NC(=O)[C@H](CC(C)C)NC(=O)[C@H](CO)NC(C)=O)C(C)C)[C@@H](C)CC)C(=O)N[C@@H](CCC(=O)O)C(=O)N[C@@H](CCCCN)C(=O)N[C@@H](CO)C(=O)N[C@@H](CC(=O)O)C(=O)N[C@@H](CCCCN)C(=O)N[C@@H](CC(C)C)C(=O)N[C@@H](CC(C)C)C(=O)N[C@@H](CCC(=O)O)C(=O)N[C@@H](CC(N)=O)C(=O)NCC(=O)N[C@@H](CO)C(=O)NCC(=O)N[C@@H](CO)C(=O)NCC(=O)N[C@@H](CCCCNC(=O)CCC(=O)OC1CCC2(C)C(=CCC3C2CCC2(C)C(C(C)CCCC(C)C)CCC32)C1)C(N)=O (stereo partly shown) [Positive polypeptide 1, reference compound] (Ac-SLEQVNKKIEQSLKFIEKSDKLLENGSGSGK(X1)-NH2)
- IC50 [1, 3]: 0.15 µM
- CC50 at 1 day [2, 4]: 3.69 µM

Structure (SMILES): CC[C@H](C)[C@H](NC(=O)[C@H](CO)NC(=O)[C@H](C)NC(=O)[C@H](CC(=O)O)NC(=O)[C@H](Cc1ccccc1)NC(=O)[C@H](CCC(=O)O)NC(=O)[C@H](CC(=O)O)NC(=O)[C@H](Cc1c[nH]c2ccccc12)NC(C)=O)C(=O)N[C@@H](CO)C(=O)N[C@@H](CCC(N)=O)C(=O)N[C@@H](CC(N)=O)C(=O)N[C@@H](CCC(=O)O)C(=O)N[C@@H](CCCCN)C(=O)N[C@H](C(=O)N[C@@H](CC(N)=O)C(=O)N[C@@H](CCC(N)=O)C(=O)N[C@@H](CO)C(=O)N[C@@H](CC(C)C)C(=O)N[C@@H](CCC(=O)O)C(=O)N[C@@H](CCC(=O)O)C(=O)N[C@H](C(=O)N[C@@H](CCCNC(=N)N)C(=O)N[C@@H](CCCCN)C(=O)N[C@@H](CO)C(=O)N[C@@H](CC(=O)O)C(=O)N[C@@H](CCC(=O)O)C(=O)N[C@@H](CC(C)C)C(=O)N[C@@H](CC(C)C)C(=O)N[C@@H](Cc1c[nH]cn1)C(=O)N[C@@H](CC(N)=O)C(=O)N[C@@H](CC(N)=O)C(=O)N[C@@H](C)C(=O)N[C@@H](CC(C)C)C(=O)N[C@@H](CCC(=O)O)C(=O)N[C@@H](C)C(=O)N[C@@H](C)C(=O)N[C@@H](C)C(=O)N[C@@H](CCCCN)C(=O)N[C@@H](CCCCNC(=O)CCC(=O)OC1CCC2(C)C(=CCC3C2CCC2(C)C(C(C)CCCC(C)C)CCC32)C1)C(N)=O)[C@@H](C)CC)[C@@H](C)CC (stereo partly shown) [Compound 39] (Ac-WDEFDASISQNEKINQSLEEIRKSDELLHNNALEAAAKK(X1)-NH2)
- IC50 [1, 3]: 0.113 µM
- CC50 at 1 day [2, 4]: > 100 µM

Structure (SMILES): CC[C@H](C)[C@H](NC(=O)[C@H](CCCCN)NC(=O)[C@H](CCCCN)NC(=O)[C@H](CC(N)=O)NC(=O)[C@@H](NC(=O)[C@H](CC(C)C)NC(=O)[C@H](CCC(=O)O)NC(=O)[C@H](CC(=O)O)NC(=O)[C@H](Cc1ccccc1)NC(C)=O)C(C)C)C(=O)N[C@@H](CCC(=O)O)C(=O)N[C@@H](CCCCN)C(=O)N[C@H](C(=O)N[C@@H](CCC(=O)O)C(=O)N[C@@H](CCC(=O)O)C(=O)N[C@H](C(=O)N[C@@H](CC(N)=O)C(=O)N[C@@H](CCCCN)C(=O)N[C@@H](CCCCN)C(=O)N[C@@H](CO)C(=O)N[C@@H](CC(C)C)C(=O)N[C@@H](CCCCN)C(=O)N[C@@H](CC(C)C)C(=O)N[C@@H](CC(C)C)C(=O)N[C@@H](CCC(=O)O)C(=O)N[C@@H](CO)C(=O)N[C@@H](CCC(=O)O)C(=O)N[C@@H](C)C(=O)N[C@@H](C)C(=O)N[C@@H](C)C(=O)N[C@@H](CCCCN)C(=O)N[C@@H](CCCCNC(=O)CCC(=O)OC1CCC2(C)C(=CCC3C2CCC2(C)C(C(C)CCCC(C)C)CCC32)C1)C(N)=O)C(C)C)[C@@H](C)CC (stereo partly shown) [Compound 37] (Ac-FDELVNKKIEKIEEVNKKSLKLLESEAAAKK(X1)-NH2)
- IC50 [1, 3]: 5.23 µM
- CC50 at 1 day [2, 4]: 4 µM

Structure (SMILES): CC[C@H](C)[C@H](NC(=O)[C@H](CCCNC(=N)N)NC(=O)[C@H](CCCNC(=N)N)NC(=O)[C@H](CCCNC(=N)N)NC(=O)[C@H](CC(N)=O)NC(=O)[C@@H](NC(=O)[C@H](CCC(=O)O)NC(=O)[C@H](Cc1ccccc1)NC(C)=O)C(C)C)C(=O)N[C@@H](CCC(=O)O)C(=O)N[C@@H](CCC(N)=O)C(=O)N[C@@H](CO)C(=O)N[C@@H](CC(C)C)C(=O)N[C@@H](CCC(=O)O)C(=O)N[C@@H](CCCCN)C(=O)N[C@@H](CO)C(=O)N[C@@H](CC(C)C)C(=O)N[C@@H](CCC(=O)O)C(=O)N[C@@H](CO)C(=O)N[C@@H](CC(C)C)C(=O)N[C@@H](CCC(=O)O)C(=O)N[C@@H](CCC(=O)O)C(=O)N[C@@H](CCC(=O)O)C(=O)N[C@@H](CCC(=O)O)C(=O)N[C@@H](Cc1c[nH]cn1)C(=O)N[C@@H](CO)C(=O)N[C@@H](CC(=O)O)C(=O)N[C@@H](CCCCN)C(=O)N[C@@H](CCCCN)C(=O)N[C@@H](CC(C)C)C(=O)N[C@@H](Cc1c[nH]cn1)C(=O)N[C@@H](CC(N)=O)C(=O)N[C@@H](CCC(=O)O)C(=O)N[C@@H](CC(C)C)C(=O)N[C@@H](Cc1c[nH]cn1)C(N)=O [Compound 46] (Ac-FEVNRRRIEQSLEKSLESLEEEEHSDKKLHNELH-NH2)
- IC50 [1, 3]: > 8 µM
- CC50 at 1 day [2, 4]: > 8 µM

Structure (SMILES): CC[C@H](C)[C@H](NC(=O)[C@H](CO)NC(=O)[C@H](C)NC(=O)[C@H](CC(=O)O)NC(=O)[C@H](Cc1ccccc1)NC(C)=O)C(=O)N[C@@H](CCC(=O)O)C(=O)N[C@@H](CCC(=O)O)C(=O)N[C@H](C(=O)N[C@@H](CC(N)=O)C(=O)N[C@@H](CCCNC(=N)N)C(=O)N[C@@H](CCCNC(=N)N)C(=O)N[C@H](C(=O)N[C@@H](CCC(=O)O)C(=O)N[C@@H](CCC(=O)O)C(=O)N[C@@H](CO)C(=O)N[C@@H](CC(C)C)C(=O)N[C@@H](CCCNC(=N)N)C(=O)N[C@@H](CCCNC(=N)N)C(=O)N[C@H](C(=O)N[C@@H](CCC(=O)O)C(=O)N[C@@H](CCC(=O)O)C(=O)N[C@@H](CO)C(=O)N[C@@H](CC(=O)O)C(=O)N[C@@H](CCCNC(=N)N)C(=O)N[C@@H](CCCNC(=N)N)C(=O)N[C@@H](CC(C)C)C(=O)N[C@@H](CCC(=O)O)C(=O)N[C@H](C(=O)N[C@@H](CC(N)=O)C(=O)N[C@@H](CCCCN)C(=O)N[C@@H](CCCCN)C(=O)N[C@@H](C)C(N)=O)C(C)C)[C@@H](C)CC)[C@@H](C)CC)C(C)C [Compound 1] (Ac-FDASIEEVNRRIEESLRRIEESDRRLEVNKKA-NH2)
- IC50 [1]: 1.36 µM
- CC50 at 1 day [2]: > 8 µM
